Experimental data reported in patent publication US4740465A, “Heat-resistant sarcosine oxidase N and process for producing the same” (Noda Institute for Scientific Research, priority 1985, dated 1988).

B1: heat-resistant sarcosine oxidase N from Bacillus sp. NS-129 (present enzyme) (Bacillus sp. NS-129) (protein)
chain: MSTHFDVIVVGAGSMGMAAGYYLAKQGVKTLLVDSFDPPHTNGSHHGDTRIIRHAYGEGREYVPFALRAQELWYELEKETHHKIFTQTGVLVYGPKGGSAFVSETMEAANIHSLEHELFEGKQLTDRWAGVEVPDNYEAIFEPNSGVLFSENCIQAYRELAEAHGATVLTYTPVEDFEVTEDLVTIKTAKGSYTANKLVVSMGAWNSKLLSKLDVEIPLQPYRQVVGFFECDEAKYSNNAHYPAFMVEVENGIYYGFPSFGGSGLKIGYHSYGQQIDPDTINREFGAYPEDEANLRKFLEQYMPGANGELKKGAVCMYTKTPDEHFVIDLHPKYSNVAIAAGFSGHGFKFSSVVGETLAQLATTGKTEHDISIFSLNRDALKKEAVK
notes: the present enzyme is ordinarily present within the cells; made in house; host or cells: Bacillus sp; NS-129 (FERM BP-671), the native producer; purified from the cells

Assays:
[1] = biological target: T1, heat-resistant sarcosine oxidase N from Bacillus sp. NS-129 (present enzyme) (Bacillus sp., UniProt P23342); assay: Inhibition of heat-resistant sarcosine oxidase N; format: biochemical; details: inhibitor at 2 mM
T1 construct: the present enzyme is ordinarily present within the cells; made in house; host or cells: Bacillus sp; NS-129 (FERM BP-671), the native producer; purified from the cells
T1 sequence (P23342 1-387): B1 chain

[2] = biological target: Known enzyme*2: the sarcosine oxidase described in J. Biochem. 89, 599 (1981) JAPAN (Corynebacterium sp., UniProt Q50LF2); details: read-out: Km value for sarcosine; 37° C., pH 7.7; Table 1, known enzyme*2; cited from earlier work
[3] = substrate: CNCC(=O)O; assay: Km determination of heat-resistant sarcosine oxidase N (present enzyme); format: biochemical, Bacillus sp. NS-129; details: other: 37° C., pH 7.7 (phosphate buffer solution)
Procedure: First method: Sarcosine is oxidatively decomposed using the present enzyme and the resulting formaldehyde is determined by colorimetry.
To 0.3 ml of a 0.2 M sarcosine solution were added 0.1 ml of a 0.3 M phosphate buffer solution (pH 7.7) and 0.1 ml of a solution containing an appropriate concentration of the present enzyme. They were subjected to reaction at 37° C. for 10 minutes. The reaction was stopped by addition of 0.5 ml of a 1.0 N acetic acid solution. Thereto was added 3 ml of a color reagent (pH 6.5) containing 0.02% (V/V) of acetylacetone and 10% (W/V) of diammonium hydrogen phosphate. The resulting mixture was subjected to color development at 37° C. for 40 minutes. The absorbance of the resulting color at 410 nm was measured using a photoelectric photometer.
Second method: Sarcosine is oxidatively decomposed using the present enzyme and the resulting hydrogen peroxide (H2 O2) is determined by colorimetry.
0.1 ml of a solution containing an appropriate concentration of the present enzyme was added to a mixture of 0.5 ml of a 0.2 M sarcosine solution, 0.1 ml of a 0.3 M phosphate buffer solution (pH 7.7), 0.1 ml of a 0.2% 2,4-dichlorophenol sulfonate solution, 0.1 ml of a 70 mg/100 ml 4-aminoantipyrine solution and 0.1 ml of a 70 units/ml peroxidase solution. […] The absorbance of the resulting color at 510 nm was measured using a photoelectric photometer.

Molecule	Inhibition of the enzyme [1]	also measured
CCN1C(=O)C=CC1=O [N-ethylmaleimide]	strongly inhibited	–
O=C(O)CI [monoiodoacetic acid]	strongly inhibited	–
CNCC(=O)O [sarcosine, N-methylglycine]	–	Km [2]: 3.4 mM
B1	–	Km [3]: 4.7 mM
